The values that follow are results of earlier work, collected in patent US7029655B2, “Magnetic resonance imaging agents for in vivo labeling and detection of amyloid deposits” (California Institute of Technology, priority 2000, dated 2006).

The conditions of this data set: thermodynamic stability of the Gd(III) chelate.

As to `O=C([O-])CN(CCN(CC(=O)[O-])CC(=O)[O-])CCN(CC(=O)[O-])CC(=O)[O-].[Gd+3]` [Gd(DTPA)^2−], the “stability constant (K) / formation constant, logK” value is given as 22.4. Consider `O=C([O-])CN1CCN(CC(=O)[O-])CCN(CC(=O)[O-])CCN(CC(=O)[O-])CC1.[Gd+3]` [Gd-DOTA], for which the “stability constant (K) / formation constant, logK” value is on record as 28.5.
